From paper PMC10318822, “Phase 1 dose-escalation study to evaluate the safety, tolerability, pharmacokinetics, and anti-tumor activity of FCN-159 in adults with neurofibromatosis type 1-related unresectable plexiform neurofibromas” (BMC Medicine, 2023)

Tested on: adult patients with NF1-related PN
Assay: Phase I dose-escalation: DLT, MTD, RP2D and drug-related TEAEs (CTCAE v5.0)
Protocol: This is a multicenter, open-label, single-arm, non-randomized, phase I dose-escalation trial to evaluate the safety, tolerability, pharmacokinetic (PK), and anti-tumor activity of orally administered FCN-159 in adult patients with NF1 (NCT04954001). Phase I commenced with dose escalation in adult patients following a standard 3 + 3 design (Supplementary Table S1) to determine the maximum tolerated dose (MTD) of FCN-159 administered daily under fasting conditions (defined as no food or drink 1 h before and 2 h after each dose) in 28-day cycles. Study drug was dispensed at the study site and patient adherence was monitored by the records of drug dispensation and return. Patients were on treatment until PD, death, patient's voluntary withdrawal from study treatment, or study termination. The study was followed for 2 years after the last patient in. The starting dose was 4 mg, escalating in cohorts of at least three evaluable patients at 6 mg, 8 mg, and 12 mg until the MTD was determined. The starting dose in this study was determined based on available data from a phase 1a, first-in-human study of FCN-159 in patients with advanced NRAS ^mut+ melanoma at the time of study design. […] Dose expansion at a likely RP2D level enrolled approximately six patients. The highest dose level with a dose-limiting toxicity (DLT) incidence rate ≤ 33% (0/3 or 1/6 patients) was to be considered the MTD. If patients experienced grade ≥ 3 and/or unacceptable toxic events that were considered as at least possibly related to the study treatment, the study treatment was discontinued and supportive treatment was given in accordance with local treatment routines. If the toxicity returned to grade ≤ 2 within 28 days after the occurrence, and there was no progression on patients’ conditions or the investigator believed that patients could benefit from the study treatment, the original dose could be maintained or reduced after discussion with medical monitor. After completion of the dose escalation part of the study, PK, efficacy, safety, and tolerability data were analyzed to select the RP2D.
Primary endpoints of the study were the DLT incidence rate, MTD, and RP2D. Secondary endpoints included other safety assessments, imaging tumor response (complete response [CR], PR, stable disease [SD], or progressive disease [PD]), and PK parameters of FCN-159. Adverse events were graded per CTCAE v5.0.
All patients underwent a complete medical history, physical examination, Eastern Cooperative Oncology Group (ECOG) assessment, and laboratory analysis of test results. Drug-related TEAEs, serious adverse events (SAEs), TEAEs of grade ≥ 3 toxicity, and TEAEs leading to drug discontinuation were reviewed on an ongoing basis. Efficacy was assessed by radiologic scans and clinical assessment. Tumor assessments per Response Evaluation in Neurofibromatosis Schwannomatosis criteria were performed by investigators using MRI volumetric analysis every 4 cycles within the first 2 years (± 7 days) and every 6 cycles after 2 years (± 14 days) until PD, death, patient's voluntary withdrawal from study treatment, or study termination. MRI sequences of […], T1- and T2-weighted sequences were chosen and the software of Extended Brilliance Workspace, SIGNA Premier and uExceed were used for MRI volumetric analysis. The same software was used for all tumor assessments at baseline and subsequent assessed timepoints of the same patient. Pain was assessed by an 11-point numerical rating scale (NRS-11).
The sample size for the dose-escalation study was estimated to be 24 based on the 3 + 3 method. Safety was analyzed in patients who received at least one dose of FCN-159 and had at least one safety assessment. DLT was assessed in the DLT analysis set, defined as patients who were enrolled in the dose-escalation study and met the DLT evaluation criteria.

With `Cn1c(=O)c(F)c(Nc2ccc(I)cc2F)c2c(=O)n(C3CC3)nc(-c3cccc(NS(=O)(=O)C4CC4)c3)c21` [FCN-159] the DLT events (4 mg) was “No DLT events were observed”, the “Drug-related TEAE: Abdominal pain” value (4 mg (N = 3)) was 0 n (%) and the “Drug-related TEAE: Acne” value (4 mg (N = 3)) was 0 n (%). For the same molecule, the “Drug-related TEAE: Acne pustular” value (4 mg (N = 3)) was 0 n (%), the “Drug-related TEAE: Alanine aminotransferase increased” value (4 mg (N = 3)) was 0 n (%) and the “Drug-related TEAE: Albumin globulin ratio decreased” value (4 mg (N = 3)) was 0 n (%). The “Drug-related TEAE: Alopecia” value (4 mg (N = 3)) was 0 n (%), the “Drug-related TEAE: Amylase increased” value (4 mg (N = 3)) was 0 n (%) and the “Drug-related TEAE: Anemia” value (4 mg (N = 3)) was 0 n (%). For the same molecule, the “Drug-related TEAE: Aortic dilatation” value (4 mg (N = 3)) was 0 n (%), the “Drug-related TEAE: Aspartate aminotransferase increased” value (4 mg (N = 3)) was 0 n (%) and the “Drug-related TEAE: Asthenia” value (4 mg (N = 3)) was 0 n (%). For the same molecule, the “Drug-related TEAE: Beta globulin decreased” value (4 mg (N = 3)) was 1 (33.3) n (%), the “Drug-related TEAE: Beta globulin increased” value (4 mg (N = 3)) was 1 (33.3) n (%) and the “Drug-related TEAE: Blood alkaline phosphatase increased” value (4 mg (N = 3)) was 0 n (%). For the same molecule, the “Drug-related TEAE: Blood bilirubin increased” value (4 mg (N = 3)) was 1 (33.3) n (%), the “Drug-related TEAE: Blood creatine phosphokinase increased” value (4 mg (N = 3)) was 1 (33.3) n (%) and the “Drug-related TEAE: Blood fibrinogen increased” value (4 mg (N = 3)) was 0 n (%). The “Drug-related TEAE: Blood lactate dehydrogenase increased” value (4 mg (N = 3)) was 1 (33.3) n (%), the “Drug-related TEAE: Blood pressure increased” value (4 mg (N = 3)) was 0 n (%) and the “Drug-related TEAE: Blood urea increased” value (4 mg (N = 3)) was 1 (33.3) n (%). The “Drug-related TEAE: Blood uric acid increased” value (4 mg (N = 3)) was 1 (33.3) n (%), the “Drug-related TEAE: Breath odor” value (4 mg (N = 3)) was 0 n (%) and the “Drug-related TEAE: Capillary disorder” value (4 mg (N = 3)) was 1 (33.3) n (%). For the same molecule, the “Drug-related TEAE: Constipation” value (4 mg (N = 3)) was 0 n (%), the “Drug-related TEAE: Decreased appetite” value (4 mg (N = 3)) was 0 n (%) and the “Drug-related TEAE: Dermatitis acneiform” value (4 mg (N = 3)) was 0 n (%). The “Drug-related TEAE: Diarrhea” value (4 mg (N = 3)) was 0 n (%), the “Drug-related TEAE: Drug eruption” value (4 mg (N = 3)) was 1 (33.3) n (%) and the “Drug-related TEAE: Dyslipidemia” value (4 mg (N = 3)) was 1 (33.3) n (%). For the same molecule, the “Drug-related TEAE: Ejection fraction decreased” value (4 mg (N = 3)) was 0 n (%), the “Drug-related TEAE: Electrocardiogram QT prolonged” value (4 mg (N = 3)) was 0 n (%) and the “Drug-related TEAE: Electrocardiogram abnormal” value (4 mg (N = 3)) was 0 n (%). For the same molecule, the “Drug-related TEAE: Epistaxis” value (4 mg (N = 3)) was 1 (33.3) n (%), the “Drug-related TEAE: Folliculitis” value (4 mg (N = 3)) was 0 n (%) and the “Drug-related TEAE: Functional gastrointestinal disorder” value (4 mg (N = 3)) was 0 n (%). The “Drug-related TEAE: Gamma-glutamyltransferase increased” value (4 mg (N = 3)) was 0 n (%), the “Drug-related TEAE: Gingival pain” value (4 mg (N = 3)) was 0 n (%) and the “Drug-related TEAE: Hyperlipidemia” value (4 mg (N = 3)) was 0 n (%). The “Drug-related TEAE: Hypertension” value (4 mg (N = 3)) was 0 n (%), the “Drug-related TEAE: Hypoalbuminemia” value (4 mg (N = 3)) was 0 n (%) and the “Drug-related TEAE: Hypocalcemia” value (4 mg (N = 3)) was 0 n (%). The “Drug-related TEAE: Hypophosphatemia” value (4 mg (N = 3)) was 0 n (%), the “Drug-related TEAE: Hypoproteinemia” value (4 mg (N = 3)) was 0 n (%) and the “Drug-related TEAE: Immunoglobulins increased” value (4 mg (N = 3)) was 2 (66.7) n (%). For the same molecule, the “Drug-related TEAE: Impetigo” value (4 mg (N = 3)) was 1 (33.3) n (%), the “Drug-related TEAE: Left atrial enlargement” value (4 mg (N = 3)) was 0 n (%) and the “Drug-related TEAE: Lipoprotein abnormal” value (4 mg (N = 3)) was 1 (33.3) n (%). The “Drug-related TEAE: Malaise” value (4 mg (N = 3)) was 1 (33.3) n (%), the “Drug-related TEAE: Menstrual disorder” value (4 mg (N = 3)) was 0 n (%) and the “Drug-related TEAE: Mitral valve incompetence” value (4 mg (N = 3)) was 0 n (%). For the same molecule, the “Drug-related TEAE: Mouth ulceration” value (4 mg (N = 3)) was 0 n (%), the “Drug-related TEAE: Muscular weakness” value (4 mg (N = 3)) was 0 n (%) and the “Drug-related TEAE: Oedema peripheral” value (4 mg (N = 3)) was 0 n (%). For the same molecule, the “Drug-related TEAE: Pain in extremity” value (4 mg (N = 3)) was 1 (33.3) n (%), the “Drug-related TEAE: Paronychia” value (4 mg (N = 3)) was 1 (33.3) n (%) and the “Drug-related TEAE: Prealbumin decreased” value (4 mg (N = 3)) was 0 n (%). For the same molecule, the “Drug-related TEAE: Protein urine present” value (4 mg (N = 3)) was 1 (33.3) n (%), the “Drug-related TEAE: Pruritus” value (4 mg (N = 3)) was 0 n (%) and the “Drug-related TEAE: QRS axis abnormal” value (4 mg (N = 3)) was 1 (33.3) n (%). For the same molecule, the “Drug-related TEAE: Rash” value (4 mg (N = 3)) was 1 (33.3) n (%), the “Drug-related TEAE: Sinus arrhythmia” value (4 mg (N = 3)) was 1 (33.3) n (%) and the “Drug-related TEAE: Sinus bradycardia” value (4 mg (N = 3)) was 1 (33.3) n (%). The “Drug-related TEAE: Sinusitis” value (4 mg (N = 3)) was 0 n (%), the “Drug-related TEAE: Skin exfoliation” value (4 mg (N = 3)) was 0 n (%) and the “Drug-related TEAE: Specific gravity urine increased” value (4 mg (N = 3)) was 1 (33.3) n (%). The “Drug-related TEAE: Stomatitis” value (4 mg (N = 3)) was 2 (66.7) n (%), the “Drug-related TEAE: Supraventricular extrasystoles” value (4 mg (N = 3)) was 1 (33.3) n (%) and the “Drug-related TEAE: Total bile acids increased” value (4 mg (N = 3)) was 1 (33.3) n (%). For the same molecule, the “Drug-related TEAE: Tricuspid valve incompetence” value (4 mg (N = 3)) was 0 n (%), the “Drug-related TEAE: Urinary occult blood positive” value (4 mg (N = 3)) was 0 n (%) and the “Drug-related TEAE: Urinary sediment present” value (4 mg (N = 3)) was 0 n (%). The “Drug-related TEAE: Urinary tract infection” value (4 mg (N = 3)) was 0 n (%), the “Drug-related TEAE: Urine ketone body present” value (4 mg (N = 3)) was 0 n (%) and the “Drug-related TEAE: Urobilinogen urine increased” value (4 mg (N = 3)) was 2 (66.7) n (%). For the same molecule, the “Drug-related TEAE: Urticaria” value (4 mg (N = 3)) was 0 n (%), the “Drug-related TEAE: Vision blurred” value (4 mg (N = 3)) was 0 n (%) and the “Drug-related TEAE: Visual acuity reduced” value (4 mg (N = 3)) was 0 n (%). The “Drug-related TEAE: pH urine decreased” value (4 mg (N = 3)) was 0 n (%), the “Drug-related TEAE: pH urine increased” value (4 mg (N = 3)) was 1 (33.3) n (%) and the “Subjects with any drug-related TEAE” value (4 mg (N = 3)) was 3 (100) n (%). The DLT events (6 mg) was “No DLT events were observed”, the “Drug-related TEAE: Abdominal pain” value (6 mg (N = 4)) was 0 n (%) and the “Drug-related TEAE: Acne” value (6 mg (N = 4)) was 1 (25.0) n (%). The “Drug-related TEAE: Acne pustular” value (6 mg (N = 4)) was 0 n (%), the “Drug-related TEAE: Alanine aminotransferase increased” value (6 mg (N = 4)) was 1 (25.0) n (%) and the “Drug-related TEAE: Albumin globulin ratio decreased” value (6 mg (N = 4)) was 0 n (%). For the same molecule, the “Drug-related TEAE: Alopecia” value (6 mg (N = 4)) was 1 (25.0) n (%), the “Drug-related TEAE: Amylase increased” value (6 mg (N = 4)) was 0 n (%) and the “Drug-related TEAE: Anemia” value (6 mg (N = 4)) was 0 n (%). The “Drug-related TEAE: Aortic dilatation” value (6 mg (N = 4)) was 0 n (%), the “Drug-related TEAE: Aspartate aminotransferase increased” value (6 mg (N = 4)) was 2 (50.0) n (%) and the “Drug-related TEAE: Asthenia” value (6 mg (N = 4)) was 1 (25.0) n (%). For the same molecule, the “Drug-related TEAE: Beta globulin decreased” value (6 mg (N = 4)) was 0 n (%), the “Drug-related TEAE: Beta globulin increased” value (6 mg (N = 4)) was 1 (25.0) n (%) and the “Drug-related TEAE: Blood alkaline phosphatase increased” value (6 mg (N = 4)) was 1 (25.0) n (%). The “Drug-related TEAE: Blood bilirubin increased” value (6 mg (N = 4)) was 2 (50.0) n (%), the “Drug-related TEAE: Blood creatine phosphokinase increased” value (6 mg (N = 4)) was 0 n (%) and the “Drug-related TEAE: Blood fibrinogen increased” value (6 mg (N = 4)) was 0 n (%). The “Drug-related TEAE: Blood lactate dehydrogenase increased” value (6 mg (N = 4)) was 1 (25.0) n (%), the “Drug-related TEAE: Blood pressure increased” value (6 mg (N = 4)) was 0 n (%) and the “Drug-related TEAE: Blood urea increased” value (6 mg (N = 4)) was 2 (50.0) n (%). For the same molecule, the “Drug-related TEAE: Blood uric acid increased” value (6 mg (N = 4)) was 1 (25.0) n (%), the “Drug-related TEAE: Breath odor” value (6 mg (N = 4)) was 2 (50.0) n (%) and the “Drug-related TEAE: Capillary disorder” value (6 mg (N = 4)) was 0 n (%). The “Drug-related TEAE: Constipation” value (6 mg (N = 4)) was 0 n (%).
